Earlier results as cited in paper PMC3954986 (Chemmedchem, 2013).
pIC50: −log10 of the molar value.

System: PLpro
Conditions: cited from earlier work

Row | Compound | pIC50
1 | Sc1ncnc2nc[nH]c12 [Inhibitor 6MP, 6‐mercaptopurine] | 4.70 to 5.30
2 | Nc1nc2nc[nH]c2c(=S)[nH]1 [Inhibitor 6TG, 6‐thioguanine] | 4.70 to 5.30
